According to PMC4732513, “Efficient one-pot synthesis, molecular docking and in silico ADME prediction of bis-(4-hydroxycoumarin-3-yl) methane derivatives as antileishmanial agents” (EXCLI Journal, 2015):
In brackets after ≈: the same amount, converted by molar mass.

test system: L. donovani promastigotes (NHOM/IN/80/DD8); experiment: In vitro antileishmanial activity (modified MTT assay); format: cell-based, Leishmania donovani; details: Figure 3
Procedure: The assay for in vitro antileishmanial activity on culture of L. donovani promastigotes (NHOM/IN/80/DD8) was carried out in 96-well tissue culture plates. The promastigotes culture was maintained at 22 ^οC in modified RPMI 1640 pH 7.4 (without phenol red) with 10 % FCS medium. Drug dilutions were prepared in DMSO and appropriate concentration of each drug was used in triplicate. Plates were incubated at 22 °C for 72 h and evaluated using modified MTT assay, where the conversion of 3-(4,5-dimethylthiazol-2-yl)-2,5-diphenyltetrazolium bromide (MTT) to formazan by mitochondrial enzymes served as an indicator of cell viability and the amount of formazan produced was directly proportional to the number of metabolically active cells. Accordingly, absorbance at 492 nm represented the number of live cells. The concentration that decreased cell growth by 50 % (IC50) was determined by graphic interpolation. Pentamidine and sodium stibogluconate were used as standard drugs (Dutta et al., 2005[11]).
The assay for in vitro antileishmanial activity was carried out on cultures of L. donovani promastigotes. The concentration that decreased cell growth by 50 % (IC50) was determined by graphic interpolation and data obtained depicted in Table 3(Tab. 3).

Structure (SMILES)	Effect on L. donovani promastigotes (viability, morphology)
CN(C)c1ccc(C(c2c(O)c3ccccc3oc2=O)c2c(O)c3ccccc3oc2=O)cc1 [3l, 3,3'-((4-(Dimethylamino)phenyl)methylene)bis(4-hydroxy-2H-chromen-2-one)]	organisms lost its viability as seen by irregular shape morphology

same assay, conditions: L. donovani promastigotes, 72 h at 22 °C, modified MTT, graphic interpolation

Structure (SMILES)	IC50 (concentration that decreased cell growth by 50 %)
COc1ccc(C(c2c(O)c3ccccc3oc2=O)c2c(O)c3ccccc3oc2=O)c(OC)c1 [3g]	157.5 µg/mL (≈ 333 µM)
O.O.O.O.O.O.O.O.O.O=C([O-])[C@@H]1[O][Sb](=[O])([O][Sb]2(=[O])[O][C@H]([C@H](O)CO)[C@H](O)[C@H](C(=O)[O-])[O]2)[O][C@H]([C@H](O)CO)[C@@H]1O.[Na+].[Na+].[Na+] (stereo partly drawn) [Sodium stibogluconate, sodium stibogluconate, reference compound]	490 µg/mL

same assay, conditions: Leishmania donovani, 72 h, read-out: IC50 (concentration that decreased cell growth by 50 %)

Structure (SMILES)	IC50
O=c1oc2ccccc2c(O)c1C(c1ccccc1)c1c(O)c2ccccc2oc1=O [3a, 3,3'-(Phenylmethylene)bis(4-hydroxy-2H-chromen-2-one)]	155 µg/mL (≈ 376 µM)
O=c1oc2ccccc2c(O)c1C(c1ccc(Cl)cc1)c1c(O)c2ccccc2oc1=O [3b, 3,3'-((4-Chlorophenyl)methylene)bis(4-hydroxy-2H-chromen-2-one)]	312 µg/mL (≈ 699 µM)
O=c1oc2ccccc2c(O)c1C(c1c(Cl)cccc1Cl)c1c(O)c2ccccc2oc1=O [3c, 3,3'-((2,6-Dichlorophenyl)methylene)bis(4-hydroxy-2H-chromen-2-one)]	320 µg/mL (≈ 665 µM)
O=c1oc2ccccc2c(O)c1C(c1ccc(F)cc1)c1c(O)c2ccccc2oc1=O [3d, 3,3'-((4-Fluorophenyl)methylene)bis(4-hydroxy-2H-chromen-2-one)]	295 µg/mL (≈ 685 µM)
COc1ccc(C(c2c(O)c3ccccc3oc2=O)c2c(O)c3ccccc3oc2=O)cc1 [3e, 3,3'-((4-Methoxyphenyl)methylene)bis(4-hydroxy-2H-chromen-2-one)]	218 µg/mL (≈ 492 µM)
COc1ccc(C(c2c(O)c3ccccc3oc2=O)c2c(O)c3ccccc3oc2=O)cc1OC [3f, 3,3'-((3,4-Dimethoxyphenyl)methylene)-bis(4-hydroxy-2H-chromen-2-one)]	275 µg/mL (≈ 582 µM)
COc1ccc(OC)c(C(c2c(O)c3ccccc3oc2=O)c2c(O)c3ccccc3oc2=O)c1 [3h, 3,3'-((2,5-Dimethoxyphenyl)methylene)bis(4-hydroxy-2H-chromen-2-one)]	198 µg/mL (≈ 418 µM)
COc1cc(C(c2c(O)c3ccccc3oc2=O)c2c(O)c3ccccc3oc2=O)cc(OC)c1OC [3i, 3,3'-((3,4,5-Trimethoxyphenyl)methylene)bis(4-hydroxy-2H-chromen-2-one)]	262 µg/mL (≈ 522 µM)
COc1cc(C(c2c(O)c3ccccc3oc2=O)c2c(O)c3ccccc3oc2=O)ccc1O [3j, 3,3'-((4-Hydroxy-3-methoxyphenyl)methylene)bis(4-hydroxy-2H-chromen-2-one)]	198 µg/mL (≈ 431 µM)
N#Cc1ccc(C(c2c(O)c3ccccc3oc2=O)c2c(O)c3ccccc3oc2=O)cc1 [3k, 3,3'-((4-Cyanophenyl)methylene)bis(4-hydroxy-2H-chromen-2-one)]	225 µg/mL (≈ 514 µM)
CN(C)c1ccc(C(c2c(O)c3ccccc3oc2=O)c2c(O)c3ccccc3oc2=O)cc1 [3l, 3,3'-((4-(Dimethylamino)phenyl)methylene)bis(4-hydroxy-2H-chromen-2-one)]	150 µg/mL (≈ 329 µM)

same assay, conditions: Leishmania donovani; L. donovani promastigotes, 72 h at 22 °C, modified MTT, graphic interpolation; read-out: IC50 (concentration that decreased cell growth by 50 %)

Structure (SMILES)	IC50
N=C(N)c1ccc(OCCCCCOc2ccc(C(=N)N)cc2)cc1 [Pentamidine, pentamidine, reference compound]	5.5 µg/mL (≈ 16.2 µM)
